According to PubChem BioAssay AID1963965 (Molecular Pharmacology Branch, DTP, NCI, 2024):
One block for each molecule: values may come before it.

System: 996289-038-R-J1-PDC spheroid viability
Experiment: Anticancer human tumor 996289-038-R-J1-PDC patient-derived colon adenocarcinoma cell line growth inhibition [PI3K]
Conditions: spheroids with HUVEC and MSC; for IC50: curve of first compound; for viability, T/C: stronger effect = lower value
Method in brief: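 High-throughput combination screen: PI3K inhibitors crossed with targeted small molecules on complex spheroids of tumor cells, HUVEC and MSCs at 37 degrees C, 5% CO2. Top concentration was at or near clinical Cmax (otherwise 10 microM), with half-log decrements.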

[1] = second compound 0.00316 µM, first compound 0.0316 µM
[2] = second compound 0.00316 µM, first compound 0.1 µM
[3] = second compound 0.00316 µM, first compound 0.316 µM
[4] = second compound 0.00316 µM, first compound 1 µM
[5] = second compound 0.00316 µM, first compound 3.16 µM
[6] = second compound 0.00316 µM, first compound 10 µM
[7] = second compound 0.01 µM, first compound 0.0316 µM
[8] = second compound 0.01 µM, first compound 0.1 µM
[9] = second compound 0.01 µM, first compound 0.316 µM
[10] = second compound 0.01 µM, first compound 1 µM
[11] = second compound 0.01 µM, first compound 3.16 µM
[12] = second compound 0.01 µM, first compound 10 µM
[13] = second compound 0.0316 µM, first compound 0.0316 µM
[14] = second compound 0.0316 µM, first compound 0.1 µM
[15] = second compound 0.0316 µM, first compound 0.316 µM
[16] = second compound 0.0316 µM, first compound 1 µM
[17] = second compound 0.0316 µM, first compound 3.16 µM
[18] = second compound 0.0316 µM, first compound 10 µM
[19] = second compound 0.1 µM, first compound 0.0316 µM
[20] = second compound 0.1 µM, first compound 0.1 µM
[21] = second compound 0.1 µM, first compound 0.316 µM
[22] = second compound 0.1 µM, first compound 1 µM
[23] = second compound 0.1 µM, first compound 3.16 µM
[24] = second compound 0.1 µM, first compound 10 µM
[25] = second compound 0.316 µM, first compound 0.0316 µM
[26] = second compound 0.316 µM, first compound 0.1 µM
[27] = second compound 0.316 µM, first compound 0.316 µM
[28] = second compound 0.316 µM, first compound 1 µM
[29] = second compound 0.316 µM, first compound 3.16 µM
[30] = second compound 0.316 µM, first compound 10 µM
[31] = second compound 1 µM, first compound 0.0316 µM
[32] = second compound 1 µM, first compound 0.1 µM
[33] = second compound 1 µM, first compound 0.316 µM
[34] = second compound 1 µM, first compound 1 µM
[35] = second compound 1 µM, first compound 3.16 µM
[36] = second compound 1 µM, first compound 10 µM
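Note: spheroids exposed to compounds for seven days before viability read.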
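Throughout, for viability, T/C: luminescence used as a proxy for viable cell amount; percent viability relative to DMSO vehicle control as 100%.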

IC50 (second compound 0.00316 µM): 807 nM
IC50 (second compound 0.01 µM): 507 nM
IC50 (second compound 0.0316 µM): 231 nM
IC50 (second compound 0.1 µM): 57.4 nM
IC50 (second compound 0.316 µM): < 31.6 nM
IC50 (second compound 1 µM): < 31.6 nM
Structure (SMILES): C#Cc1c(F)ccc2cc(O)cc(-c3ncc4c(N5CC6CCC(C5)N6)nc(OCC56CCCN5CC(F)C6)nc4c3F)c12 (centres undefined) + COc1c(OCCCN2CCOCC2)ccc2c3n(c(=NC(=O)c4cnc(N)nc4)nc12)CCN3
viability, T/C [1]: 91.4%
viability, T/C [2]: 71.3%
viability, T/C [3]: 60.9%
viability, T/C [4]: 47.2%
viability, T/C [5]: 39.9%
viability, T/C [6]: 35.3%
viability, T/C [7]: 79.8%
viability, T/C [8]: 83.6%
viability, T/C [9]: 55.4%
viability, T/C [10]: 40.3%
viability, T/C [11]: 31.1%
viability, T/C [12]: 26.9%
viability, T/C [13]: 68.7%
viability, T/C [14]: 61.3%
viability, T/C [15]: 45%
viability, T/C [16]: 33.2%
viability, T/C [17]: 25.8%
viability, T/C [18]: 19%
viability, T/C [19]: 55.1%
viability, T/C [20]: 46%
viability, T/C [21]: 29.6%
viability, T/C [22]: 23.1%
viability, T/C [23]: 16.4%
viability, T/C [24]: 14.8%
viability, T/C [25]: 35.3%
viability, T/C [26]: 27.9%
viability, T/C [27]: 19.7%
viability, T/C [28]: 14%
viability, T/C [29]: 10.6%
viability, T/C [30]: 7.75%
viability, T/C [31]: 15.9%
viability, T/C [32]: 16.8%
viability, T/C [33]: 11.1%
viability, T/C [34]: 7.03%
viability, T/C [35]: 5.65%
viability, T/C [36]: 4.52%

IC50 (second compound 0.00316 µM): > 10000 nM
IC50 (second compound 0.01 µM): > 10000 nM
IC50 (second compound 0.0316 µM): > 10000 nM
IC50 (second compound 0.1 µM): > 10000 nM
IC50 (second compound 0.316 µM): < 31.6 nM
IC50 (second compound 1 µM): < 31.6 nM
Structure (SMILES): C=CC(=O)N1CCN(c2nc(=O)n(-c3c(C)ccnc3C(C)C)c3nc(-c4c(O)cccc4F)c(F)cc23)C(C)C1 (centres undefined) + COc1c(OCCCN2CCOCC2)ccc2c3n(c(=NC(=O)c4cnc(N)nc4)nc12)CCN3
viability, T/C [1]: 99.8%
viability, T/C [2]: 99.1%
viability, T/C [3]: 118%
viability, T/C [4]: 129%
viability, T/C [5]: 137%
viability, T/C [6]: 104%
viability, T/C [7]: 99.8%
viability, T/C [8]: 92.7%
viability, T/C [9]: 108%
viability, T/C [10]: 99.9%
viability, T/C [11]: 106%
viability, T/C [12]: 109%
viability, T/C [13]: 82.6%
viability, T/C [14]: 88.3%
viability, T/C [15]: 85.4%
viability, T/C [16]: 81.5%
viability, T/C [17]: 90.7%
viability, T/C [18]: 85.6%
viability, T/C [19]: 60.7%
viability, T/C [20]: 52.7%
viability, T/C [21]: 62.5%
viability, T/C [22]: 74.3%
viability, T/C [23]: 70.8%
viability, T/C [24]: 71.9%
viability, T/C [25]: 37.7%
viability, T/C [26]: 42.5%
viability, T/C [27]: 38.2%
viability, T/C [28]: 42%
viability, T/C [29]: 48.2%
viability, T/C [30]: 40.5%
viability, T/C [31]: 21%
viability, T/C [32]: 22.6%
viability, T/C [33]: 20.4%
viability, T/C [34]: 22%
viability, T/C [35]: 23.3%
viability, T/C [36]: 20.7%
